According to US20250230153A1, “2,3-DIHYDROBENZO[B][1,4]DIOXIN-6-YL CONTAINING COMPOUNDS USEFUL AS IMMUNOMODULATORS” (BRISTOL-MYERS SQUIBB COMPANY, priority 2021, published 2025):

Molecular target: PD-1/PD-L1 (Homo sapiens (Human), UniProt Q9NZQ7)
Experiment: PD-1/PD-L1 Homogenous Time-Resolved Fluorescence (HTRF) binding assay
Settings: PD-1-Ig (20 nM final)/PD-L1-His (10 nM final) binding assay
Method in brief: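 Compounds pre-incubated 15 min with human PD-L1(18-239)-His (10 nM final), then 15 min with PD-1(25-167)-Ig (20 nM final), in dPBS with 0.1% BSA and 0.05% Tween-20. Detection with Eu-cryptate anti-Ig (1 nM) and APC anti-His (20 nM) after 30 min equilibration; 665/620 nm ratio read.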

PD-1/PD-L1, sequence (Q9NZQ7 18-239): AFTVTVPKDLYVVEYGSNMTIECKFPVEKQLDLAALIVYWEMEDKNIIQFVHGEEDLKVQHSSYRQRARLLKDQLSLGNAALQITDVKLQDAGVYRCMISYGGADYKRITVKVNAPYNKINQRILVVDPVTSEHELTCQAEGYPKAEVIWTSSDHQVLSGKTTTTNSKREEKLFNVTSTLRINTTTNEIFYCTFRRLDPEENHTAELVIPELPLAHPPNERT

Row | IC50 [nM] | SMILES
1 | 5.2 | Cc1c(COc2cc(OCc3cncc(C(=O)NCCC(=O)O)c3)c(CN3CC[C@H](O)C3)cc2Cl)cccc1-c1ccc2c(c1)OCCO2 [Example 2008, (S)-3-(5-((4-chloro-5-((3-(2,3-dihydrobenzo[b][1,4]dioxin-6-yl)-2-methylbenzyl)oxy)-2-((3-hydroxypyrrolidin-1-yl)methyl)phenoxy)methyl)nicotinamido)propanoic acid]
2 | 2.2 | Cc1c(COc2cc(OCCN3CCCC(O)(C(F)(F)F)C3)c(CNC(C)(CO)CO)cc2Cl)cccc1-c1ccc2c(c1)OCCO2 (stereo not drawn) [Example 1059, 2-((5-Chloro-4-((3-(2,3-dihydrobenzo[b][1,4]dioxin-6-yl)-2-methylbenzyl)oxy)-2-(2-(3-hydroxy-3-(trifluoromethyl)piperidin-1-yl)ethoxy)benzyl)amino)-2-methylpropane-1,3-diol]
3 | 9.2 | Cc1c(COc2cc(OCCN3CCS(=O)(=O)CC3)c(CN3CCCC[C@H]3C(=O)O)cc2Cl)cccc1-c1ccc2c(c1)OCCO2 [Example 1060, (S)-1-(5-chloro-4-((3-(2,3-dihydrobenzo[b][1,4]dioxin-6-yl)-2-methylbenzyl)oxy)-2-(2-(1,1-dioxidothiomorpholino)ethoxy)benzyl)piperidine-2-carboxylic acid]
4 | 11.1 | Cc1c(COc2cc(OCC3CCC3)c(CN[C@](C)(CO)C(=O)O)cc2Cl)cccc1-c1ccc2c(c1)OCCO2 [Example 1048, (R)-2-((5-chloro-2-(cyclobutylmethoxy)-4-((3-(2,3-dihydrobenzo[b][1,4]dioxin-6-yl)-2-methylbenzyl)oxy)benzyl)amino)-3-hydroxy-2-methylpropanoic acid]
5 | 6.5 | Cc1c(COc2cc(OCc3cncc(C(=O)N[C@@H](CCCNC(=N)N)C(=O)O)c3)c(CN3CC[C@H](O)C3)cc2Cl)cccc1-c1ccc2c(c1)OCCO2 [Example 2010, (S)-2-(5-((4-chloro-5-((3-(2,3-dihydrobenzo[b][1,4]dioxin-6-yl)-2-methylbenzyl)oxy)-2-(((S)-3-hydroxypyrrolidin-1-yl)methyl)phenoxy)methyl)nicotinamido)-5-guanidinopentanoic acid]
6 | 1.8 | Cc1c(COc2cc(OCCN3CCC(O)(C(=O)O)CC3)c(CN3CCCC[C@H]3C(=O)O)cc2Cl)cccc1-c1ccc2c(c1)OCCO2 [Example 1054, (S)-1-(2-(2-(4-Carboxy-4-hydroxypiperidin-1-yl)ethoxy)-5-chloro-4-((3-(2,3-dihydrobenzo[b]1[1,4]dioxin-6-yl)-2-methylbenzyl)oxy)benzyl)piperidine-2-carboxylic acid]
7 | 0.4 | Cc1c(COc2cc(OCCN3CCC(O)(C(=O)O)CC3)c(CN[C@](C)(CO)C(=O)O)cc2Cl)cccc1-c1ccc2c(c1)OCCO2 [Example 1055, (R)-1-(2-(2-(((2-Carboxy-1-hydroxypropan-2-yl)amino)methyl)-4-chloro-5-((3-(2,3-dihydrobenzo[b]1[1,4]dioxin-6-yl)-2-methylbenzyl)oxy)phenoxy)ethyl)-4-hydroxypiperidine-4-carboxylic acid]

The remaining lines, values behind:

Row | SMILES | IC50 [nM]
8 | Cc1c(COc2cc(OCc3ccnc(NC(=O)N4CCOCC4)c3)c(CN[C@@](C)(CO)C(=O)O)cc2Cl)cccc1-c1ccc2c(c1)OCCO2 [Example 1004, (S)-2-((5-Chloro-4-((3-(2,3-dihydrobenzo[b][1,4]dioxin-6-yl)-2-methylbenzyl)oxy)-2-((2-(morpholine-4-carboxamido)pyridin-4-yl)methoxy)benzyl)amino)-3-hydroxy-2-methylpropanoic acid] | 17.3
9 | Cc1c(COc2cc(OCc3cnn(CC#N)c3)c(CN[C@@](C)(CO)C(=O)O)cc2Cl)cccc1-c1ccc2c(c1)OCCO2 [Example 1008, (S)-2-((5-chloro-2-((1-(cyanomethyl)-1H-pyrazol-4-yl)methoxy)-4-((3-(2,3-dihydrobenzo[b][1,4]dioxin-6-yl)-2-methylbenzyl)oxy)benzyl)amino)-3-hydroxy-2-methylpropanoic acid] | 1.7
10 | CCn1cc(COc2cc(OCc3cccc(-c4ccc5c(c4)OCCO5)c3C)c(Cl)cc2CN[C@@](C)(CO)C(=O)O)cn1 [Example 1003, (S)-2-((5-Chloro-4-((3-(2,3-dihydrobenzo[b][1,4]dioxin-6-yl)-2-methylbenzyl)oxy)-2-((1-ethyl-1H-pyrazol-4-yl)methoxy)benzyl)amino)-3-hydroxy-2-methylpropanoic acid] | 5.8
11 | Cc1c(COc2cc(OCc3cnn(CC(=O)OC(C)(C)C)c3)c(CN[C@@](C)(CO)C(=O)O)cc2Cl)cccc1-c1ccc2c(c1)OCCO2 [Example 1009, (S)-2-((2-((1-(2-(tert-Butoxy)-2-oxoethyl)-1H-pyrazol-4-yl)methoxy)-5-chloro-4-((3-(2,3-dihydrobenzo[b][1,4]dioxin-6-yl)-2-methylbenzyl)oxy)benzyl)amino)-3-hydroxy-2-methylpropanoic acid] | 43.7
12 | Cc1c(COc2cc(OCc3cccc(-c4nc(CC(=O)O)co4)c3)c(CN[C@@](C)(CO)C(=O)O)cc2Cl)cccc1-c1ccc2c(c1)OCCO2 [Example 1015, (S)-2-((2-((3-(4-(Carboxymethyl)oxazol-2-yl)benzyl)oxy)-5-chloro-4-((3-(2,3-dihydrobenzo[b][1,4]dioxin-6-yl)-2-methylbenzyl)oxy)benzyl)amino)-3-hydroxy-2-methylpropanoic acid] | 68.4
13 | Cc1c(COc2cc(OCCN3CCCCC3)c(CN[C@](C)(CO)C(=O)O)cc2Cl)cccc1-c1ccc2c(c1)OCCO2 [Example 1043, (R)-2-((5-Chloro-4-((3-(2,3-dihydrobenzo[b][1,4]dioxin-6-yl)-2-methylbenzyl)oxy)-2-(2-(piperidin-1-yl)ethoxy)benzyl)amino)-3-hydroxy-2-methylpropanoic acid] | 0.4
14 | Cc1c(COc2cc(OCCCCN3CC[C@@H](O)C3)c(CN[C@](C)(CO)C(=O)O)cc2Cl)cccc1-c1ccc2c(c1)OCCO2 [Example 1026, (R)-2-((5-Chloro-4-((3-(2,3-dihydrobenzo[b][1,4]dioxin-6-yl)-2-methylbenzyl)oxy)-2-(4-((R)-3-hydroxypyrrolidin-1-yl)butoxy)benzyl)amino)-3-hydroxy-2-methylpropanoic acid] | 2.2
15 | Cc1c(COc2cc(OCCCCN3CC[C@@H](O)C3)c(CNC(C)(CO)CO)cc2Cl)cccc1-c1ccc2c(c1)OCCO2 [Example 1027, (R)-2-((5-Chloro-4-((3-(2,3-dihydrobenzo[b][1,4]dioxin-6-yl)-2-methylbenzyl)oxy)-2-(4-(3-hydroxypyrrolidin-1-yl)butoxy)benzyl)amino)-2-methylpropane-1,3-diol] | 4.1
16 | Cc1cnc(COc2cc(OCc3cccc(-c4ccc5c(c4)OCCO5)c3C)c(Cl)cc2CN[C@@](C)(CO)C(=O)O)cn1 [Example 1002, (S)-2-((5-Chloro-4-((3-(2,3-dihydrobenzo[b][1,4]dioxin-6-yl)-2-methylbenzyl)oxy)-2-((5-methylpyrazin-2-yl)methoxy)benzyl)amino)-3-hydroxy-2-methylpropanoic acid] | 6.8
17 | CCn1cc(COc2cc(OCc3cccc(-c4ccc5c(c4)OCCO5)c3C)c(Cl)cc2CN[C@H](CO)C(=O)O)cn1 [Example 1005, (R)-2-((5-Chloro-4-((3-(2,3-dihydrobenzo[b][1,4]dioxin-6-yl)-2-methylbenzyl)oxy)-2-((1-ethyl-1H-pyrazol-4-yl)methoxy)benzyl)amino)-3-hydroxypropanoic acid] | 7.9
18 | Cc1c(COc2cc(OCC3CCCCC3)c(CN3CCCC[C@H]3C(=O)O)cc2Cl)cccc1-c1ccc2c(c1)OCCO2 [Example 1040, (S)-1-(5-Chloro-2-(cyclohexylmethoxy)-4-((3-(2,3-dihydrobenzo[b][1,4]dioxin-6-yl)-2-methylbenzyl)oxy)benzyl)piperidine-2-carboxylic acid] | 164
